According to PMC4741798, “Imaging of carbonic anhydrase IX with an ^111In-labeled dual-motif inhibitor” (Oncotarget, 2015):

What was measured:
CAIX [1] = molecular target: T1, CAIX (Homo sapiens, UniProt Q16790); assay: Competitive fluorescence polarization assay with FITC-labeled 8; assay type: binding; conditions: 100 nM CAIX, 80 nM 8, 30 min room temperature, triplicate; read-out: IC50 (inhibition of fluorescence polarization of FITC labeled 8)
T1 construct: purchased R&D Systems
Source text: We synthesized fluorescein isothiocyanate (FITC)-labeled 8 as a standard to measure CAIX binding affinities of the corresponding radiotracers. […] CAIX-selective binding was confirmed by fluorescence microscopic analyses of SK-RC-53 and BxPC3 cells labeled with 8 (Fig. 2). […] In order to test the relative binding of XYIMSR-01 and [^113/115In]XYIMSR-01 to CAIX we modified a competitive fluorescence polarization assay for use with 8. For the competitive binding assay, after optimization for background fluorescence, we chose concentrations of 80 nM and 100 nM for 8 and CAIX, respectively. […] Increasing concentrations of 1, XYIMSR-01 and [^113/115In]XYIMSR-01 were incubated with CAIX for 30 min at room temperature. After 8 was added, fluorescence polarization signal was recorded. […] We took advantage of fluorescence polarization using 8 to measure relative binding affinities for other isoforms of the carbonic anhydrases. We chose to test one cytosolic (CAII) and an additional membrane-localized isoform (CAXII).
Fluorescence polarization (FP) experiments were performed in 21 μL of the assay buffer (12.5 mM Tris-HCl, pH 7.5, 75 mM NaCl) in black flat bottom 384-well microplates (Corning, Inc., New York, NY). The FP reaction employed 100 nM of purified CAIX (R&D systems, Minneapolis, MN) and 80 nM FITC-labeled 8 [27] within the assay buffer. The FP values were measured as mP units using the Victor3 multi-label plate reader equipped with excitation (485 nm) and emission (535 nm) filters (Perkin Elmer, Waltham, MA). 100 nM CAIX was incubated with serially diluted (from 1 μM to 61 fM) concentrations of the three targeting molecules, 1, XYIMSR-01, and [^113/115In]XYIMSR-01 for 30 min at room temperature in 384-well plates. 80 nM 8 was added to each well and the reaction was incubated for 30 min at room temperature followed by FP measurement. Experiments were carried out in triplicate and the concentration resulting in 50% response (IC50) was calculated in GraphPad Prism 5 (GraphPad Software, La Jolla, CA) using the sigmoidal dose-response regression function.

CAIX [2] = molecular target: CAIX; design: method as in PMID 25698334; conditions: reported value; cited from earlier work

Structure (SMILES)	IC50 (CAIX [1])	Kd (CAIX [2])
CC(CCC(=O)N[C@@H](CC(=O)N[C@@H](CC(=O)N[C@@H](CCCCn1cc(CCCC(=O)Nc2nnc(S(N)(=O)=O)s2)nn1)C(=O)NCCOCCOCCN)C(=O)O)C(=O)O)(c1ccc(O)cc1)c1ccc(O)cc1 [Compound 1, N^4-((S)-1-((2-(2-(2-aminoethoxy)ethoxy)ethyl)amino)-1-oxo-6-(4-(4-oxo-4-((5-sulfamoyl-1,3,4-thiadiazol-2-yl)amino)butyl)-1H-1,2,3-triazol-1-yl)hexan-2-yl)-N^2-((S)-3-(4,4-bis(4-hydroxyphenyl)pentanamido)-3-carboxypropanoyl)-L-asparagine, reference compound]	75.9 nM	2.6 nM
CC(CCC(=O)N[C@@H](CC(=O)N[C@@H](CC(=O)N[C@@H](CCCCn1cc(CCCC(=O)Nc2nnc(S(N)(=O)=O)s2)nn1)C(=O)NCCOCCOCCNC(=O)CN1CCN(CC(=O)O)CCN(CC(=O)O)CCN(CC(=O)O)CC1)C(=O)O)C(=O)O)(c1ccc(O)cc1)c1ccc(O)cc1 [XYIMSR-01, 2,2′,2′'-(10-((14S,18S,22S)-18,22-dicarboxy-27,27-bis(4-hydroxyphenyl)-2,13,16,20,24-pentaoxo-14-(4-(4-(4-oxo-4-((5-sulfamoyl-1,3,4-thiadiazol-2-yl)amino)butyl)-1H-1,2,3-triazol-1-yl)butyl)-6,9-dioxa-3,12,15,19,23-pentaazaoctacosyl)-1,4,7,10-tetraazacyclododecane-1,4,7-triyl)triacetic acid]	67 nM	
CC(CCC(=O)N[C@@H](CC(=O)N[C@@H](CC(=O)N[C@@H](CCCCn1cc(CCCC(=O)Nc2nnc(S(N)(=O)=O)s2)nn1)C(=O)NCCOCCOCCNC(=O)CN1CCN(CC(=O)[O-])CCN(CC(=O)[O-])CCN(CC(=O)[O-])CC1)C(=O)O)C(=O)O)(c1ccc(O)cc1)c1ccc(O)cc1.[In+3] [[^113/115In]XYIMSR-01, ^113/115Indium(III) 2,2′,2′'-(10-((14S,18S,22S)-18,22-dicarboxy-27,27-bis(4-hydroxyphenyl)-2,13,16,20,24-pentaoxo-14-(4-(4-(4-oxo-4-((5-sulfamoyl-1,3,4-thiadiazol-2-yl)amino)butyl)-1H-1,2,3-triazol-1-yl)butyl)-6,9-dioxa-3,12,15,19,23-pentaazaoctacosyl)-1,4,7,10-tetraazacyclododecane-1,4,7-triyl)triacetate]	108 nM	
